Legend:
Format in all cases: cell-based
LL29 cells = test: Inhibition of the fibrotic process (αSMA staining) in TGF-β1 treated primary human fibroblasts from IPF patients; conditions: Fibroblast, 96 h, TGF-β1 20 ng/mL, 4 days, dose-response 10 μM to 1.87 nM, read-out: Inhibition of fibrosis EC50
Summary of the method: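 LL29 IPF lung fibroblasts in 1% FBS were stimulated with TGF-β1 (20 ng/mL) and treated 4 days at 37 °C with compound (11 points, 10 μM–1.87 nM, 0.1% DMSO). The % αSMA-positive cells, imaged after excluding SYTOX-positive dead cells, was normalized to TGF-β1/DMSO wells. EC50 came from nonlinear regression over triplicates.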

[1] = system: primary human mesenchymal stem cells (hMSCs); test: Chondrogenesis induction screen in primary human mesenchymal stem cells (nodules, Rhodamine B/Nile Red); conditions: 144 h, 6 days; for EC (100% TGF-beta3 activity): concentration required to induce chondrogenesis equivalent to TGF-β3 (10 ng/mL), read-out: Conc (nM) of 100% TGF-β3 activity; for Emax: relative to TGF-β3 (10 ng/mL) positive control, read-out: Max. Activity as % TGF-β3 activity
Method: The above synthesized compounds were screened using primary human mesenchymal stem cells (hMSCs) to determine their ability to induce chondrogenesis (process by which cartilage is developed).
Primary human mesenchymal stem cells (hMSCs) were purchased from Lonza (Walkersville, Md.) and expanded in Mesenchymal Stem Cell Growth Media (Lonza). Cells between passage 3 and 6 were used for the experiments.
Each compound was dissolved in DMSO as a 10 mM stock and used to prepare compound source plates. Serial dilution (1:3, 6-point dose-response curves from 2700 nM to 10 nM) and compound transfer was performed using the ECHO 550 (Labcyte, Sunnyvale, Calif.) into 96-well clear bottom assay plates (Greiner Bio-One) with appropriate DMSO backfill for a final DMSO concentration of 0.03%. hMSCs were plated at 20,000 cells/well in 250 μL/well Incomplete Chondrogenic Induction Medium (Lonza; DMEM, dexamethasone, ascorbate, insulin-transferrin-selenium [ITS supplement], gentamycin-amphotericin [GA-1000], sodium pyruvate, proline and L-glutamine). TGF-β3 (10 ng/mL) was used as a positive control for differentiation while negative control wells were treated with 75 nL DMSO for normalization and calculating EC50 values. Cells were incubated at 37° C. and 5% CO2 for 6 days. To image chondrogenic nodules, the cells were fixed using 4% formaldehyde (Electron Microscopy Sciences), and stained with 2 μg/mL Rhodamine B (Sigma-Aldrich) and 20 μM Nile Red (Sigma-Aldrich) [Johnson K., et. al, A Stem Cell-Based Approach to Cartilage Repair, Science, (2012), 336(6082), 717-721]. The nodules imaged (4 images per well at 4× magnification) by excitation at 531 nm and emission at 625 nm and quantified using the CellInsight CX5 (Thermo Scientific). Number of nodules in each well was normalized to the average of 3 DMSO treated wells on the same plate using Excel (Microsoft Inc.). The normalized averages (fold change over DMSO) of 3 replicate wells for each compound concentration were calculated. Due to solubility limitations of some of the compounds, curve fitting was incomplete leading to inaccurate EC50 determinations.
Using TGF-03 as a positive control, the concentration of test compounds required to induce equivalent levels of chondrogenesis is reported. In addition, the maximum activity of each compound and the respective dose that each compound reached maximum chondrogenesis activity is reported.

[2] = system: Wnt pathway (Sp5-Luc reporter, SW480 cells); test: Sp5-Luc reporter gene screening assay for Wnt activity in SW480 colon carcinoma cells; conditions: Homo sapiens
Summary of the method: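 IC50 values come from variable-slope four-parameter fits of luciferase signal normalized to DMSO wells. Stable Sp5-Luc reporter SW480 colon carcinoma cells were exposed to compounds in a 3-fold dilution series (source plates from 10 mM stock) for forty-two hours at 37 °C.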

| IC50 [2] | Structure (SMILES) | EC50 (LL29 cells) | EC (100% TGF-beta3 activity) [1] | Emax [1] |
| --- | --- | --- | --- | --- |
| 10.7 nM | CCCC(=O)Nc1cncc(-c2cc3c(-c4nc5c(-c6cccc(F)c6)nccc5[nH]4)n[nH]c3cn2)c1 [Compound 17, N-(5-(3-(4-(3-Fluorophenyl)-1H-imidazo[4,5-c]pyridin-2-yl)-1H-pyrazolo[3,4-c]pyridin-5-yl)pyridin-3-yl)butyramide] | ≤ 9 nM | 67.8 nM | 10% |
| 1.7 nM | c1cncc(-c2cc3c(-c4nc5c(-c6cccnc6)nccc5[nH]4)n[nH]c3cn2)c1 [Compound 82, 5-(Pyridin-3-yl)-3-(4-(pyridin-3-yl)-1H-imidazo[4,5-c]pyridin-2-yl)-1H-pyrazolo[3,4-c]pyridine] | – | 44.5 nM | – |
| 32.8 nM | Cc1cn(-c2nccc3[nH]c(-c4n[nH]c5cnc(-c6cncc(NC(=O)C(C)(C)C)c6)cc45)nc23)cn1 [Compound 190, N-(5-(3-(4-(4-Methyl-1H-imidazol-1-yl)-1H-imidazo[4,5-c]pyridin-2-yl)-1H-pyrazolo[3,4-c]pyridin-5-yl)pyridin-3-yl)pivalamide] | – | 71.8 nM | 100% |
| > 10000 nM | CCCC(=O)Nc1cncc(-c2cc3c(-c4nc5c(-c6cc(F)cc(CNS(C)(=O)=O)c6)nccc5[nH]4)n[nH]c3cn2)c1 [Compound 433, N-(5-(3-(4-(3-Fluoro-5-(methylsulfonamidomethyl)phenyl)-1H-imidazo[4,5-c]pyridin-2-yl)-1H-pyrazolo[3,4-c]pyridin-5-yl)pyridin-3-yl)butyramide] | 195 nM | – | – |
| 67.3 nM | CS(=O)(=O)NCc1cc(F)cc(-c2nccc3[nH]c(-c4n[nH]c5cnc(-c6cncc(CNCc7ccccc7)c6)cc45)nc23)c1 [Compound 439, N-(3-(2-(5-(5-((Benzylamino)methyl)pyridin-3-yl)-1H-pyrazolo[3,4-c]pyridin-3-yl)-1H-imidazo[4,5-c]pyridin-4-yl)-5-fluorobenzyl)methanesulfonamide] | ≤ 9 nM | – | – |
| 30.8 nM | CS(=O)(=O)NCc1cc(F)cc(-c2nccc3[nH]c(-c4n[nH]c5cnc(-c6cncnc6)cc45)nc23)c1 [Compound 442, N-(3-Fluoro-5-(2-(5-(pyrimidin-5-yl)-1H-pyrazolo[3,4-c]pyridin-3-yl)-1H-imidazo[4,5-c]pyridin-4-yl)benzyl)methanesulfonamide] | ≤ 9 nM | – | – |
| 394 nM | CCNCc1cncc(-c2cc3c(-c4nc5c(-c6cc(F)cc(NCCN(C)C)c6)nccc5[nH]4)n[nH]c3cn2)c1 [Compound 448, N^1-(3-(2-(5-(5-((Ethylamino)methyl)pyridin-3-yl)-1H-pyrazolo[3,4-c]pyridin-3-yl)-1H-imidazo[4,5-c]pyridin-4-yl)-5-fluorophenyl)-N2,N2-dimethylethane-1,2-diamine] | ≥ 9990 nM | – | – |
| 266 nM | CC(C)Nc1cncc(-c2cc3c(-c4nc5c(-c6cc(F)cc(NCCN(C)C)c6)nccc5[nH]4)n[nH]c3cn2)c1 [Compound 454, N^1-(3-Fluoro-5-(2-(5-(5-(isopropylamino)pyridin-3-yl)-1H-pyrazolo[3,4-c]pyridin-3-yl)-1H-imidazo[4,5-c]pyridin-4-yl)phenyl)-N2,N2-dimethylethane-1,2-diamine] | 1620 nM | – | – |
| 203 nM | CCCCC(=O)Nc1cncc(-c2cc3c(-c4nc5c(-c6cc(F)cc(NCCN(C)C)c6)nccc5[nH]4)n[nH]c3cn2)c1 [Compound 460, N-(5-(3-(4-(3-((2-(Dimethylamino)ethyl)amino)-5-fluorophenyl)-1H-imidazo[4,5-c]pyridin-2-yl)-1H-pyrazolo[3,4-c]pyridin-5-yl)pyridin-3-yl)pentanamide] | ≥ 9990 nM | – | – |
| 342 nM | CN(C)CCNc1cc(F)cc(-c2nccc3[nH]c(-c4n[nH]c5cnc(-c6cncc(CNCC7CCCC7)c6)cc45)nc23)c1 [Compound 466, N^1-(3-(2-(5-(5-(((Cyclopentylmethyl)amino)methyl)pyridin-3-yl)-1H-pyrazolo[3,4-c]pyridin-3-yl)-1H-imidazo[4,5-c]pyridin-4-yl)-5-fluorophenyl)-N2,N2-dimethylethane-1,2-diamine] | 74 nM | – | – |
| > 10000 nM | Fc1cccc(-c2nccc3[nH]c(-c4n[nH]c5cnc(C6CCNCC6)cc45)nc23)c1 [Compound 937, 3-(4-(3-Fluorophenyl)-1H-imidazo[4,5-c]pyridin-2-yl)-5-(piperidin-4-yl)-1H-pyrazolo[3,4-c]pyridine] | 2610 nM | – | – |
| 1 nM | Fc1cccc(-c2nccc3[nH]c(-c4n[nH]c5cnc(-c6cn[nH]c6)cc45)nc23)c1 [Compound 939, 3-(4-(3-Fluorophenyl)-1H-imidazo[4,5-c]pyridin-2-yl)-5-(1H-pyrazol-4-yl)-1H-pyrazolo[3,4-c]pyridine] | ≤ 9 nM | – | – |
| 1010 nM | Cc1ncc(-c2cc3c(-c4nc5c(-c6cccc(F)c6)nccc5[nH]4)n[nH]c3cn2)n1C [Compound 941, 5-(1,2-Dimethyl-1H-imidazol-5-yl)-3-(4-(3-fluorophenyl)-1H-imidazo[4,5-c]pyridin-2-yl)-1H-pyrazolo[3,4-c]pyridine] | 76 nM | – | – |
| > 10000 nM | O=C(CC1CCNCC1)Nc1cncc(-c2cc3c(-c4nc5c(-c6cccc(F)c6)nccc5[nH]4)n[nH]c3cn2)c1 [Compound 945, N-(5-(3-(4-(3-Fluorophenyl)-1H-imidazo[4,5-c]pyridin-2-yl)-1H-pyrazolo [3,4-c]pyridin-5-yl)pyridin-3-yl)-2-(piperidin-4-yl)acetamide] | 60 nM | – | – |
| 28 nM | Oc1cncc(-c2cc3c(-c4nc5c(-c6cccc(F)c6)nccc5[nH]4)n[nH]c3cn2)c1 [Compound 949, 5-(3-(4-(3-Fluorophenyl)-1H-imidazo[4,5-c]pyridin-2-yl)-1H-pyrazolo[3,4-c]pyridin-5-yl)pyridin-3-ol] | ≥ 9990 nM | – | – |
| 320 nM | Fc1cccc(-c2nccc3[nH]c(-c4n[nH]c5cnc(-c6ccccn6)cc45)nc23)c1 [Compound 953, 3-(4-(3-Fluorophenyl)-1H-imidazo[4,5-c]pyridin-2-yl)-5-(pyridin-2-yl)-1H-pyrazolo[3,4-c]pyridine] | 1940 nM | – | – |
| 20 nM | Fc1cccc(-c2nccc3[nH]c(-c4n[nH]c5cnc(-c6cnccn6)cc45)nc23)c1 [Compound 954, 3-(4-(3-Fluorophenyl)-1H-imidazo[4,5-c]pyridin-2-yl)-5-(pyrazin-2-yl)-1H-pyrazolo[3,4-c]pyridine] | ≥ 9990 nM | – | – |
| 135 nM | CC(C)CC(=O)Nc1cncc(-c2cc3c(-c4nc5c(-c6cc(O)cc(F)c6)nccc5[nH]4)n[nH]c3cn2)c1 [Compound 1350, N-(5-(3-(4-(3-Fluoro-5-hydroxyphenyl)-1H-imidazo[4,5-c]pyridin-2-yl)-1H-pyrazolo[3,4-c]pyridin-5-yl)pyridin-3-yl)-3-methylbutanamide] | 135 nM | – | – |
| 151 nM | COc1cc(F)cc(-c2nccc3[nH]c(-c4n[nH]c5cnc(-c6cncc(NC(=O)CC(C)C)c6)cc45)nc23)c1 [Compound 1394, N-(5-(3-(4-(3-Fluoro-5-methoxyphenyl)-1H-imidazo[4,5-c]pyridin-2-yl)-1H-pyrazolo[3,4-c]pyridin-5-yl)pyridin-3-yl)-3-methylbutanamide] | 332 nM | – | – |
| 38 nM | CN(C)CC(=O)Nc1cncc(-c2cc3c(-c4nc5c(-c6cccc(F)c6)nccc5[nH]4)n[nH]c3cn2)c1 [Compound 1437, 2-(Dimethylamino)-N-(5-(3-(4-(3-fluorophenyl)-1H-imidazo[4,5-c]pyridin-2-yl)-1H-pyrazolo[3,4-c]pyridin-5-yl)pyridin-3-yl)acetamide] | 342 nM | – | – |

| Structure (SMILES) | IC50 [2] | EC50 (LL29 cells) | EC (100% TGF-beta3 activity) [1] | Emax [1] |
| --- | --- | --- | --- | --- |
| Fc1cccc(-c2nccc3[nH]c(-c4n[nH]c5cnc(C6=CCNCC6)cc45)nc23)c1 [Compound 938, 3-(4-(3-Fluorophenyl)-1H-imidazo[4,5-c]pyridin-2-yl)-5-(1,2,3,6-tetrahydropyridin-4-yl)-1H-pyrazolo[3,4-c]pyridine] | 125 nM | 198 nM | – | – |

— US9844536B2, “3-(1H-imidazo[4,5-C]pyridin-2-yl)-1H-pyrazolo[3,4-C]pyridine and therapeutic uses thereof” (Samumed, LLC, priority 2014, dated 2017)
